Test results taken from PMC8352984, “Estrogen mediates sex differences in preoptic neuropeptide and pituitary hormone production in medaka” (Communications Biology, 2021).

Assays:
[1] = test system: adcyap1-expressing neurons in the PMp; experiment: Gonadectomy and sex steroid treatment, in situ hybridization of adcyap1 in PMp; assay type: in vivo, medaka (Oryzias latipes); settings: 100 ng ml^-1 in water, 6 days; for number of adcyap1-expressing neurons in PMp: castrated (CX) males
Description: (§1) Fig. 4 Sex-biased expression of adcyap1 and vip in the POA is established by ovarian estrogen. a Levels of adcyap1 and vip expression in the brain of sex-reversed XX males and XY females versus typical XY males and XX females (n = 8 per group). b Number of adcyap1- and vip-expressing neurons in the PMp of sex-reversed XX males and XY females (n = 5 per group). c Representative micrographs showing adcyap1 and vip expression in the PMp of sex-reversed XX males and XY females. Scale bars represent 50 μm. d Number of adcyap1- and vip-expressing neurons in the PMp of sham-operated (sham) males and castrated males exposed to vehicle alone (CX), 11-ketotestosterone (CX + KT), or estradiol-17β (CX + E2) (n = 5 per group, except CX + E2 for adcyap1 and CX + KT for vip, where n = 4). e Representative micrographs showing adcyap1 and vip expression in the PMp of sham, CX, CX + KT, and CX + E2 males. Scale bars represent 50 μm. f Number of adcyap1- and vip-expressing neurons in the PMp of sham females and ovariectomized females exposed to vehicle alone (OVX), KT (OVX + KT), or E2 (OVX + E2) (n = 5 per group). g Representative micrographs showing adcyap1 and vip expression in the PMp of sham, OVX, OVX + KT, and OVX + E2 females. Scale bars represent 50 μm. Quantitative data were expressed as means with error bars representing standard error of the mean. Statistical differences were assessed by Bonferroni’s post-hoc test (a, d, f) and unpaired t-test (b). *p < 0.05; **p < 0.01; ***p < 0.001.
(§2) For both males and females, the gonad was removed under 0.02% tricaine methane sulfonate anesthesia (Sigma–Aldrich, St. Louis, MO, USA) through a small incision in the ventrolateral abdominal wall. Immediately after removal of the gonad, the incision was sutured with nylon thread. Sham-operated fish underwent the same surgical treatment as gonadectomized fish except for gonad removal. After a recovery period of 3 days in saline (0.9% (w v^−1) NaCl), gonadectomized fish were immersed in water containing 100 ng ml^−1 of KT (Cosmo Bio, Tokyo, Japan) or E2 (Fujifilm Wako Pure Chemical Corporation), or vehicle (ethanol) alone for 6 days and then sampled. Sham-operated fish were treated with vehicle alone and used as controls. The sex steroid concentration used was based on previously reported serum steroid levels in medaka.
(§3) The procedure for single-label in situ hybridization has been described elsewhere. In brief, the brain and pituitary were fixed in 4% paraformaldehyde (PFA) and embedded in paraffin. Serial coronal sections of 10 μm thickness were cut and hybridized with each of the six DIG-labeled Adcyap1/Vip receptor probes described above and the DIG-labeled adcyap1 and vip probes used for northern blot analysis. Hybridization signals were visualized by using alkaline phosphatase-conjugated anti-DIG antibody and 5-bromo-4-chloro-3-indolyl phosphate/nitro blue tetrazolium (BCIP/NBT) substrate (Roche Diagnostics). Color development was allowed to proceed for more than 9 h or was stopped after 1.5 h to avoid saturation (for quantification of vip expression after gonadectomy and sex steroid replacement). All sections in each comparison were processed simultaneously under the same conditions.
(§4) To obtain quantitative data, the number of neurons positive for a hybridization signal was counted manually in each brain nucleus. In some brain regions, these neurons were continuously distributed across two or more nuclei such that it was difficult to count the number of the neurons separately in each nucleus. In this case, the total number of the neurons in the nuclei was counted. For the pituitary and nuclei where these neurons were tightly clustered and their exact number could not be determined, sections were photographed and converted to black and white binary images by thresholding using Adobe Photoshop (ver. 22; Adobe Systems, San Jose, CA, USA). […]

[2] = test system: vip-expressing neurons in the PMp; experiment: Gonadectomy and sex steroid treatment, in situ hybridization of vip in PMp; assay type: in vivo, medaka (Oryzias latipes); settings: 100 ng ml^-1 in water, 6 days; for number of vip-expressing neurons in PMp: castrated (CX) males
Description: as §1, §2, §3, §4

[3] = ovariectomized females, effect on the ovariectomy-induced increase
[4] = ovariectomized females, effect on the ovariectomy-induced reduction

Structure (SMILES) | number of adcyap1-expressing neurons in PMp ([1]; fish 1 (Fig. 4d)) | number of adcyap1-expressing neurons in PMp ([1]; fish 3 (Fig. 4d)) | number of adcyap1-expressing neurons in PMp ([1]; fish 4 (Fig. 4d)) | number of adcyap1-expressing neurons in PMp ([1]; fish 5 (Fig. 4d)) | number of adcyap1-expressing neurons in PMp (in words) ([1]; castrated males) | number of adcyap1-expressing neurons in PMp (in words) [1, 3] | number of vip-expressing neurons in PMp ([2]; fish 1 (Fig. 4d)) | number of vip-expressing neurons in PMp ([2]; fish 2 (Fig. 4d)) | number of vip-expressing neurons in PMp ([2]; fish 3 (Fig. 4d)) | number of vip-expressing neurons in PMp ([2]; fish 4 (Fig. 4d)) | number of vip-expressing neurons in PMp ([2]; fish 5 (Fig. 4d)) | number of vip-expressing neurons in PMp (in words) ([2]; castrated males) | number of vip-expressing neurons in PMp (in words) [2, 4] | number of adcyap1-expressing neurons in PMp ([1]; fish 2 (Fig. 4d))
C[C@]12CC[C@@H]3c4ccc(O)cc4CC[C@H]3[C@@H]1CC[C@@H]2O [E2, estradiol-17β] | 56.0 | 85.0 | 112.0 | 79.5 | significantly reduced adcyap1-expressing neurons | completely abolished | 260.0 | 388.5 | 363.0 | 447.0 | 311.0 | increased vip-expressing neurons | restored | 
C[C@]12CC(=O)[C@H]3[C@@H](CCC4=CC(=O)CC[C@@]43C)[C@@H]1CC[C@@H]2O [KT, 11-ketotestosterone] | 198.0 | 273.5 | 161.5 | 147.0 | did not affect either of these neurons | had no such effect | 98.5 |  | 118.0 | 84.5 | 192.5 | did not affect either of these neurons | not KT treatment | 271.0
